Measurements reported in PubChem BioAssay AID330 (DTP/NCI, 2004).
Where “and” joins values, the source holds several entries; their conditions need not be identical. Equal entries are not always repeated. Inconclusive results and toxic doses are left out. How the source made its calls: active means survival T/C of 150% or more; inactive means T/C below 125% in these data.

Tested on: P388 leukemia ip, CD2F1 mice, survival T/C
Test: NCI In Vivo Anticancer Drug Screen. Data for tumor model P388 Leukemia (intraperitoneal) in CD2F1 (CDF1) mice
Settings: endpoint: median survival time, higher = longer survival
Procedure, shortened: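 Mice carrying the transplanted tumor received test compound or vehicle. Survival was recorded in each group, and the value is the treated-group measurement divided by that of the vehicle-treated control group.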

[1] = dose: 100.0 mg/kg/injection, schedule: Q04DX003 (ip), vehicle: saline with Tween-80
[2] = dose: 50.0 mg/kg/injection, schedule: Q01DX005 (ip), vehicle: saline
[3] = dose: 100.0 mg/kg/injection, schedule: Q01DX005 (ip), vehicle: saline
[4] = dose: 200.0 mg/kg/injection, schedule: Q01DX005 (ip), vehicle: saline
[5] = dose: 50.0 mg/kg/injection, schedule: Q01DX005 (ip), vehicle: Klucel (hydroxypropylcellulose) (HPC)
[6] = dose: 100.0 mg/kg/injection, schedule: Q01DX005 (ip), vehicle: Klucel (hydroxypropylcellulose) (HPC)
[7] = dose: 200.0 mg/kg/injection, schedule: Q01DX005 (ip), vehicle: Klucel (hydroxypropylcellulose) (HPC)
[8] = dose: 50.0 mg/kg/injection, schedule: Q01DX005 (ip), vehicle: saline with Tween-80
[9] = dose: 100.0 mg/kg/injection, schedule: Q01DX005 (ip), vehicle: saline with Tween-80
[10] = dose: 200.0 mg/kg/injection, schedule: Q01DX005 (ip), vehicle: saline with Tween-80
[11] = dose: 25.0 mg/kg/injection, schedule: Q01DX009 (ip), vehicle: saline
[12] = dose: 100.0 mg/kg/injection, schedule: Q04DX003 (ip), vehicle: saline
[13] = dose: 200.0 mg/kg/injection, schedule: Q04DX003 (ip), vehicle: saline
[14] = dose: 100.0 mg/kg/injection, schedule: Q01DX001 (ip), vehicle: saline with Tween-80
[15] = dose: 25.0 mg/kg/injection, schedule: Q01DX005 (ip), vehicle: saline with Tween-80
[16] = dose: 60.0 mg/kg/injection, schedule: Q01DX005 (ip), vehicle: saline with Tween-80
[17] = dose: 120.0 mg/kg/injection, schedule: Q01DX005 (ip), vehicle: saline with Tween-80
[18] = dose: 240.0 mg/kg/injection, schedule: Q01DX005 (ip), vehicle: saline with Tween-80

Measured: T/C

COc1c2c(c(OC)c3c(OC)c4ccccc4c(OC)c13)CC(=O)CC2
inactive: dose: 1.56 mg/kg/injection, schedule: Q01DX009 (ip), vehicle: other 105 % of control | dose: 3.13 mg/kg/injection, schedule: Q01DX009 (ip), vehicle: other 101 % of control | dose: 6.25 mg/kg/injection, schedule: Q01DX009 (ip), vehicle: other 105 % of control | dose: 12.5 mg/kg/injection, schedule: Q01DX009 (ip), vehicle: other 101 % of control | dose: 25.0 mg/kg/injection, schedule: Q01DX009 (ip), vehicle: other 91 % of control

CC1(OC(=O)Nc2ccccc2)CCCCC1
inactive: [1] 96 % of control | dose: 200.0 mg/kg/injection, schedule: Q04DX003 (ip), vehicle: saline with Tween-80 100 % of control | dose: 400.0 mg/kg/injection, schedule: Q04DX003 (ip), vehicle: saline with Tween-80 97 % of control

CCCCCCCCCCN1COC2Cc3ccccc3CC21 (stereo not given)
inactive: [2] 99 % of control | [3] 100 % of control | [4] 100 % of control

COC(=O)c1cccc2c1Oc1ccccc1S2
inactive: dose: 25.0 mg/kg/injection, schedule: Q01DX005 (ip), vehicle: Klucel (hydroxypropylcellulose) (HPC) 102 % of control | [5] 103 % of control | [6] 102 % of control | [7] 100 % of control

O=C(Nc1cccc2c1C(=O)c1cccc(Nc3cccc4c3C(=O)c3cccc(NC(=O)c5ccccc5)c3C4=O)c1C2=O)c1ccccc1
inactive: [8] 101 % of control and 94 % of control | [9] 88 % of control and 92 % of control | [10] 93 % of control

Cc1cc(=O)oc2c(C)c3oc4c(c3cc12)CN(C)CC4
inactive: [5] 100 % of control | [6] 117 % of control

CSC(C#N)(c1ccccc1)N(C)C (stereo not given)
inactive: dose: 25.0 mg/kg/injection, schedule: Q04DX003 (ip), vehicle: suspension in saline 106 % of control | dose: 50.0 mg/kg/injection, schedule: Q04DX003 (ip), vehicle: suspension in saline 103 % of control | [1] 103 % of control | dose: 100.0 mg/kg/injection, schedule: Q04DX003 (ip), vehicle: suspension in saline 96 % of control

NC(N)=N/N=C/c1ccc(Cl)cc1Cl
inactive: [11] 104 % of control | dose: 50.0 mg/kg/injection, schedule: Q01DX009 (ip), vehicle: saline 106 % of control

CC(=O)Nc1ccc(C(=O)c2ccccc2)cc1
inactive: dose: 25.0 mg/kg/injection, schedule: Q04DX003 (ip), vehicle: saline 102 % of control | dose: 50.0 mg/kg/injection, schedule: Q04DX003 (ip), vehicle: saline 103 % of control | [12] 100 % of control | [13] 103 % of control

O=C1C=C(N2CC2)c2ccccc2C1=O
inactive: dose: 6.25 mg/kg/injection, schedule: Q01DX009 (ip), vehicle: saline with Tween-80 118 % of control | dose: 6.25 mg/kg/injection, schedule: Q04DX003 (ip), vehicle: saline with Tween-80 110 % of control | dose: 8.33 mg/kg/injection, schedule: Q01DX009 (ip), vehicle: saline with Tween-80 118 % of control | dose: 12.5 mg/kg/injection, schedule: Q04DX003 (ip), vehicle: saline with Tween-80 120 % of control

CC1CC(=O)c2cc(-c3ccccc3)oc2C1 (stereo not given)
inactive: dose: 50.0 mg/kg/injection, schedule: Q01DX009 (ip), vehicle: Klucel (hydroxypropylcellulose) (HPC) 115 % of control | dose: 100.0 mg/kg/injection, schedule: Q01DX009 (ip), vehicle: Klucel (hydroxypropylcellulose) (HPC) 102 % of control | dose: 200.0 mg/kg/injection, schedule: Q01DX009 (ip), vehicle: Klucel (hydroxypropylcellulose) (HPC) 97 % of control

Cc1cccc(N2CCN(c3ccc4nonc4c3[N+](=O)[O-])CC2)c1
inactive: dose: 50.0 mg/kg/injection, schedule: Q01DX009 (ip), vehicle: suspension in saline 98 % of control | dose: 100.0 mg/kg/injection, schedule: Q01DX009 (ip), vehicle: suspension in saline 92 % of control and 95 % of control | dose: 200.0 mg/kg/injection, schedule: Q01DX009 (ip), vehicle: suspension in saline 89 % of control and 90 % of control

Cn1c(=O)nc2n(-c3ccc(Cl)c(Cl)c3)c3ccccc3nc-2c1=O
inactive: dose: 100.0 mg/kg/injection, schedule: Q01DX001 (ip), vehicle: Klucel (hydroxypropylcellulose) (HPC) 107 % of control | dose: 200.0 mg/kg/injection, schedule: Q01DX001 (ip), vehicle: Klucel (hydroxypropylcellulose) (HPC) 98 % of control | dose: 400.0 mg/kg/injection, schedule: Q01DX001 (ip), vehicle: Klucel (hydroxypropylcellulose) (HPC) 94 % of control

Cc1ccccc1CC(C)c1ccccc1 (stereo not given)
inactive: dose: 50.0 mg/kg/injection, schedule: Q01DX009 (ip), vehicle: saline with Tween-80 100 % of control | dose: 100.0 mg/kg/injection, schedule: Q01DX009 (ip), vehicle: saline with Tween-80 123 % of control

O=C(NCN1CCOCC1)c1ccccc1O
inactive: dose: 100.0 mg/kg/injection, schedule: Q04DX002 (ip), vehicle: saline with Tween-80 98 % of control | dose: 200.0 mg/kg/injection, schedule: Q04DX002 (ip), vehicle: saline with Tween-80 104 % of control

CCOC(=O)CCCCCO
inactive: [14] 104 % of control | dose: 200.0 mg/kg/injection, schedule: Q01DX001 (ip), vehicle: saline with Tween-80 104 % of control | dose: 400.0 mg/kg/injection, schedule: Q01DX001 (ip), vehicle: saline with Tween-80 106 % of control

O=C(O)CCNC(=O)CCCO
inactive: [2] 100 % of control | [3] 104 % of control | [4] 104 % of control

N#CCOC1OC(CO)C(O)C(O)C1O (stereo not given)
inactive: [5] 100 % of control | [6] 99 % of control | [7] 99 % of control

CCOC(=O)C1=Nc2ccccc2N=C(C2C(=O)C=C(C)OC2=O)C1 (stereo not given)
inactive: dose: 100.0 mg/kg/injection, schedule: Q01DX001 (ip), vehicle: saline 108 % of control | dose: 200.0 mg/kg/injection, schedule: Q01DX001 (ip), vehicle: saline 104 % of control | dose: 400.0 mg/kg/injection, schedule: Q01DX001 (ip), vehicle: saline 103 % of control

O=c1c(Br)cn(Cc2ccccc2)cc1Br
inactive: [2] 92 % of control | [3] 95 % of control | [4] 90 % of control

C=C1C(=O)CCC1/C=C\C (stereo not given)
inactive: dose: 12.5 mg/kg/injection, schedule: Q01DX005 (ip), vehicle: saline with Tween-80 111 % of control | [15] 110 % of control | [8] 99 % of control

CN(C)C(C#C[Si](C)(C)C)C1(O)CCCCC1 (stereo not given)
inactive: [12] 103 % of control | [13] 105 % of control | dose: 400.0 mg/kg/injection, schedule: Q04DX003 (ip), vehicle: saline 103 % of control

COC[C@H]1OC(=O)c2coc3c2[C@@]1(C)C1=C(C3=O)[C@@H]2CCC(=O)[C@@]2(C)C[C@H]1OC(C)=O
inactive: dose: 0.31 mg/kg/injection, schedule: Q01DX009 (ip), vehicle: saline with Tween-80 115 % of control | dose: 2.5 mg/kg/injection, schedule: Q01DX009 (ip), vehicle: saline with Tween-80 99 % of control and 90 % of control

N/C(=N\C(=O)OCc1ccccc1)N(CCCC(NC(=O)OCc1ccccc1)C(=O)O)C(=O)OCc1ccccc1 (stereo not given)
inactive: [16] 104 % of control | [17] 87 % of control | [18] 88 % of control

ClCC(Br)CBr (stereo not given) (tested in a mixture with another compound)
inactive: dose: 12.5 mg/kg/injection, schedule: Q01DX009 (ip), vehicle: saline 96 % of control | [11] 96 % of control

Clc1ccc2oc(N3CCOCC3)nc2c1
inactive: [16] 103 % of control | [17] 96 % of control | [18] 87 % of control

Cc1cc2nnc(-c3cccc([N+](=O)[O-])c3)n2c2nnnn12
inactive: [15] 100 % of control | [8] 102 % of control | [9] 98 % of control | [10] 100 % of control

O=Cc1c2ccc(Cl)cc2nc2cc(Cl)ccc12
inactive: dose: 25.0 mg/kg/injection, schedule: Q01DX001 (ip), vehicle: saline with Tween-80 100 % of control | dose: 50.0 mg/kg/injection, schedule: Q01DX001 (ip), vehicle: saline with Tween-80 90 % of control | [14] 100 % of control
